Common to all, as to assay type: in vivo, human
Series [1] concerns healthy adults. Description: Drug interaction study with co-administration of vadadustat in healthy adults. To be noted: healthy adults; extent of increase. The text has this:
Sulfasalazine. Other Breast Cancer Resistance Protein Substrates. and Probenecid. Exposures to sulfasalazine (moderately) and mesalamine (mildly) were increased with co-administration of vadadustat based on a study in healthy adults. In subjects taking vadadustat, sulfasalazine and other clinically relevant substrates of the breast cancer resistance protein (BCRP) transporter (e.g., sulfasalazine, methotrexate, mitoxantrone, imatinib, irinotecan, lapatinib, topotecan, tenofovir, glecaprevir, pibrentasvir, or sofosbuvir), caution should be taken during the study. Probenecid, an inhibitor of UDP-glucuronosyltransferase (UGT) and the organic anion transporter (OAT)1/3 transporters, increased vadadustat area under the curve and is prohibited during the study.

The nature of series [2]: Phase 2 study, Main Study: pharmacokinetics (vadadustat and vadadustat-O-glucuronide concentration). To be noted: Week 1, Week 1+1 day, and Week 11. The method, then:
PK/PD Endpoints. An exposure-response analysis of vadadustat and PD measures were conducted as deemed appropriate. The PK parameters included (but were not limited to) the following: area under concentration-time curve from dosing to last measurable concentration (AUClast), area under concentration-time curve from dosing to infinity (AUCinf), Cmax, apparent total body clearance (CL/F), apparent volume of distribution (Vd/F), and terminal half-life (t1/2). The PD parameters included (but were not limited to) the following: EPO, reticulocytes, iron, ferritin, TIBC, and hepcidin.
PK population: included all randomized subjects who received study drug (vadadustat or epoetin alfa) and had enough drug concentrations to estimate AUC and Cmax. Analysis of this population was based on the dose amount taken at the date of PK sampling for the vadadustat group.

Series [3] in a line: Phase 1b study: pharmacokinetics of vadadustat and its metabolites in plasma of hemodialysis subjects with anemia associated with CKD. The protocol:
The primary objective of the study was to assess the pharmacokinetics (PK) of vadadustat 600, 750, and 900 mg daily, and IV ESA (darbepoetin alfa or epoetin alfa) in hemodialysis subjects with anemia associated with CKD. Additional objectives included to evaluate the pharmacodynamics (PD) of vadadustat 600, 750, and 900 mg daily, and IV ESA (darbepoetin alfa or epoetin alfa) in hemodialysis subjects with anemia associated with CKD and to assess the safety and tolerability of vadadustat 600, 750, and 900 mg daily and IV ESA (darbepoetin alfa or epoetin alfa) in hemodialysis subjects with anemia associated with CKD.
Study Design. This was a Phase 1b, randomized, open-label study to evaluate the PK, PD, safety, and tolerability of vadadustat 600, 750, or 900 mg daily, or ESA (darbepoetin alfa or epoetin alfa) in hemodialysis subjects with anemia associated with CKD. The study included a 28-day Screening and Randomization period, a 10-day Treatment Period, and a 30-day Safety Follow up Period after the last dose of study drug (vadadustat or ESA). For subjects randomized to vadadustat, study duration also included an ESA washout period of a minimum of 5 days for epoetin alfa or 9 days for darbepoetin alfa or 9-day ESA Washout period prior to dosing on Day 1.
A total of 46 subjects were enrolled in the study. Written informed consent were obtained before any screening procedures were performed. Subjects were screened within 28 days prior to randomization. Eligible subjects were randomized in a 2:2:2:1 ratio to 1 of 4 treatment groups (600, 750, or 900 mg vadadustat QD, or ESA. Randomized subjects began their 10-day Treatment Period within 36 days of initiating screening.
Eligible subjects were randomly assigned in a 2:2:2:1 ratio to 1 of 4 treatment groups: Group 1—vadadustat 600 mg once daily (QD); Group 2—vadadustat 750 mg QD; Group 3—vadadustat 900 QD; and Group 4—IV ESA. Randomization was stratified by the mean weekly ESA dose calculated over a period of 8 weeks prior to the randomization visit. For darbepoetin, the groups were divided into low dose darbepoetin alfa group (<0.5 μg/kg/week) and high dose darbepoetin alfa group (>0.5 to <1.5 μg/kg/week). For epoetin, the groups were divided into low dose epoetin alfa group (≤90 U/kg/week) and high dose epoetin alfa group (>90 to <300 U/kg/week).
Subjects began dosing on Day 1 and took vadadustat at approximately the same time each day for a total of 10 days. On Day 1 and Day 8, subjects took vadadustat after all predose procedures are completed and within 30 minutes prior to the start of dialysis so that the 1-hour post dose blood sample for PK and PD was collected during dialysis. Vadadustat could be taken with or without food. Subjects were instructed to make every effort to take the drug consistently, either with or without food. Subjects were instructed to swallow the tablets whole with water.
PK and EPO Sample. For each vadadustat treatment group, blood samples for vadadustat PK (and its metabolites) and EPO were collected at the following time points: Day 1: predose, and at 1, 2, 3, 4, 5, 8, and 11 hours post dose; Day 2: 24 hours (−2 hours) post Day 1 dose; Day 6: blood sample for EPO analysis only was collected predose on Day 6; Day 8: predose, and at 1, 2, 3, 4, 5, 8, 11 hours post dose, Day 10 or EOT: predose. For the ESA treatment group, blood samples for analysis of EPO were collected at the following time points: Day 1: predose, and at 0.25, 1, 2, 3, 4, 5, 8, and 11 hours post dose; Day 2: 24 hours (−2 hours) post Day 1 dose.
Primary Endpoints. […]

The record followed here is US12697330B2, “Therapeutic methods using vadadustat” (Akebia Therapeutics, Inc., priority 2021, dated 2026).

With `Nc1ccc(O)c(C(=O)O)c1` [mesalamine], in series [1], the “Exposures increased with co-administration of vadadustat” value is reported as “mildly”.

With `O=C(O)c1cc(/N=N/c2ccc(S(=O)(=O)Nc3ccccn3)cc2)ccc1O` [sulfasalazine], the “Exposures increased with co-administration of vadadustat” value in series [1] was “moderately”.

As to `O=C(O)CNC(=O)c1ncc(-c2cccc(Cl)c2)cc1O[C@@H]1O[C@H](C(=O)O)[C@@H](O)[C@H](O)[C@H]1O` [vadadustat-O-glucuronide], the “mean concentration versus time profiles, dose dependency” value in series [2] was “concentrations increased with dose levels”. Also, the “metabolite exposure versus dose” value in series [3] (Day 8) was “increased in a dose-dependent manner”. Besides, the accumulation versus dose entry in series [3] (most pronounced in the 900 mg vadadustat treatment group) is recorded as “dose-dependent increase in accumulation”.
